# Measurements taken from US20250255867A1 (Kadmon Corporation, LLC, priority 2022, published 2025).
# Read-outs that look alike come from different tables or passages of the source.
# How the values were obtained:
# patients with cGVHD = assay: Example 1 phase IIa dose-finding study: cGVHD response per 2014 NIH Consensus Criteria (ORR, BOR, DOR, TTR, organ response); format: in vivo, human; details: for DOR Median (95% CI): responder population
# Procedure: Eligible patients were allogeneic bone marrow transplant or allogeneic hematopoietic cell transplant (alloHCT) recipients of age ≥18 years with persistent cGVHD manifestations after having received one to three prior systemic lines of therapy and who were receiving corticosteroid treatment with or without a calcineurin inhibitor and/or concurrent extracorporeal photopheresis.
# (FIG. 1) Before enrollment of the subsequent cohort, safety data in each previous cohort were analyzed after eight patients reached two months of treatment to assure that there was no safety signal. […] No safety concerns were identified, allowing for planned dose escalation.
# Progression was defined per the 2014 NIH cGVHD Consensus Criteria. Long-term follow-up was conducted every 8 weeks until study closeout. […] Screening was conducted within 28 days of the first study dose. Response was initially assessed after two cycles; however, this was amended to evaluate response on day 1 of each cycle, starting at cycle 2 day 1.
# All responses were assessed by the investigators.
# Percentage of Participants With Overall Response (OR): OR was defined as the percentage of participants with complete response (CR) or partial response (PR). The OR determination of chronic graft versus host disease (cGVHD) was based on cGVHD response assessment performed by clinicians as per the 2014 National Institutes of Health (NIH) Consensus Development Project for Clinical Trials in cGVHD criteria. CR was defined as the resolution of all manifestations in each organ or site. PR was defined as the improvement in at least 1 organ or site without progression in any other organ or site; and cGVHD progression was defined as the clinically meaningful worsening in 1 or more organs regardless of improvement in other organs.
# Duration of Response (DOR). The DOR was defined as the time (in weeks) from first documentation of response to the time of first documentation of deterioration from best response (e.g., CR to PR, or PR to […]). LOR included the response status of unchanged (LOR-U), mixed (LOR-M), or progression (LOR-P). […] Kaplan-Meier was used for the analysis.
# Best Overall Response (BOR). BOR was defined as the participants with either a CR or PR or lack of response (LOR), where LOR included the response status of unchanged (LOR-U), mixed (LOR-M), or progression (LOR-P). BOR was assessed per the 2014 NIH Consensus Development Project for Clinical Trials in cGVHD criteria. […] Analysis was performed on mITT population.
# Best Response in Each Individual Organ. Best response was defined as the percentage of participants with CR or PR. Response was assessed per the 2014 NIH Consensus Development Project for Clinical Trials in cGVHD criteria; CR was defined as the resolution of all manifestations in each organ or site; PR was defined as the improvement in at least 1 organ or site without progression in any other organ or site. Organ response assessment was performed on 9 individual organs: skin, eyes, mouth, esophagus, upper GI, lower GI, liver, lungs, and joints and fascia. […] Analysis was performed on mITT population. Here, ‘number analyzed’=participants with available data for each specified category.
# [1] = Example 1: plasma pharmacokinetics (Cmax, Tmax, AUC0-6 hr) of belumosudil and metabolites; format: in vivo, human; details: for Tmax: human, oral, read-out: Time of the Maximum Observed Plasma Concentration (Tmax), Median (Full Range); for Maximum Observed Plasma Concentration (Cmax), Geometric Mean (Geometric Coefficient of Variation) / Tmax: plasma
# Procedure: Cmax was the maximum observed plasma concentration, obtained by a non-compartmental analysis. […] Timeframe: Cycles 1 and 2: pre-dose (0 hour), 1, 2, 3, 4, 5, and 6 hours post-dose on Day 1. […] Here, ‘number analyzed’=participants with available data for each specified category.
# Tmax was defined as time to reach maximum observed plasma concentration, obtained by a non-compartmental analysis. […] Timeframe: Cycles 1 and 2: pre-dose (0 hour), 1, 2, 3, 4, 5, and 6 hours post-dose on Day 1. Analysis was performed on PK population. Here, ‘number analyzed’=participants with available data for each specified category.
# AUC0-6 hr was defined as area under the plasma concentration versus time curve from time 0 to 6 hours post-dose, obtained by a non-compartmental analysis from the concentration-time data. […] Timeframe: Cycles 1 and 2: pre-dose (0 hour), 1, 2, 3, 4, 5, and 6 hours post-dose on Day 1. Analysis was performed on PK population. Here, ‘number analyzed’=participants with available data for each specified category.
# [2] = Cohort 1 200 mg QD, 17 analyzed
# [3] = Cohort 2 200 mg BID, 16 analyzed
# [4] = Cohort 3 400 mg QD, 21 analyzed
# [5] = Cohort 1: Belumosudil 200 mg QD, Cycle 1 Day 1
# [6] = Cohort 1: Belumosudil 200 mg QD, Cycle 2 Day 1
# [7] = Cohort 2: Belumosudil 200 mg BID, Cycle 1 Day 1
# [8] = Cohort 2: Belumosudil 200 mg BID, Cycle 2 Day 1
# [9] = Cohort 3: Belumosudil 400 mg QD, Cycle 1 Day 1
# [10] = Cohort 3: Belumosudil 400 mg QD, Cycle 2 Day 1
smiles,measurement,setting,value
"CC(C)NC(=O)COc1cccc(-c2nc(Nc3ccc4[nH]ncc4c3)c3ccccc3n2)c1 [Belumosudil, 2-{3-[4-(1H-indazol-5-ylamino)-2-quinazolinyl]phenoxy}-N-(propan-2-yl) acetamide]","Best response (CR or PR) in skin, percentage of participants",patients with cGVHD; Cohort 1 200 mg QD,(23%)
same,"Best response in esophagus, percentage of participants",patients with cGVHD; Cohort 1 200 mg QD,(50%)
same,"Best response in joints and fascia, percentage of participants",patients with cGVHD; Cohort 1 200 mg QD,(55%)
same,"ORR, % (95% CI)",patients with cGVHD; Cohort 1 200 mg QD,65%
same,"ORR, refractory to previous LOT",patients with cGVHD; Cohort 1 200 mg QD,"7/11 (64, 31 to %"
same,"ORR, severe cGVHD",patients with cGVHD; Cohort 1 200 mg QD,"8/12 (67, 35 to %"
same,"ORR, ≤2 prior LOTs subgroup",patients with cGVHD; Cohort 1 200 mg QD,"10/15 (67, 38 to %"
same,"ORR, ≤4 organs involved",patients with cGVHD; Cohort 1 200 mg QD,"4/8 (50, 16 to %"
same,BOR: CR,patients with cGVHD; [2],0 participants
same,BOR: LOR-P,patients with cGVHD; [2],2 participants
same,BOR: LOR-U,patients with cGVHD; [2],2 participants
same,BOR: PR,patients with cGVHD; [2],11 participants
same,"ORR, % (95% CI)","patients with cGVHD; Cohort 1 200 mg QD, listed as KD025",65 (38 to 86) %
same,DOR Median (95% CI),patients with cGVHD; Cohort 1 200 mg QD,40 (8-na* %) weeks
same,"Best response (CR or PR) in skin, percentage of participants",patients with cGVHD; Cohort 2 200 mg BID,(17%)
same,"Best response in liver, percentage of participants",patients with cGVHD; Cohort 2 200 mg BID,(50%)
same,"ORR, % (95% CI)",patients with cGVHD; Cohort 2 200 mg BID,69%
same,"ORR, refractory to previous LOT",patients with cGVHD; Cohort 2 200 mg BID,"6/9 (67, 30 to %"
same,"ORR, severe cGVHD",patients with cGVHD; Cohort 2 200 mg BID,"9/14 (64, 35 to %"
same,"ORR, ≤2 prior LOTs subgroup",patients with cGVHD; Cohort 2 200 mg BID,"5/8 (63, 25 to %"
same,"ORR, ≤4 organs involved",patients with cGVHD; Cohort 2 200 mg BID,"8/10 (80, 44 to %"
same,BOR: CR,patients with cGVHD; [3],0 participants
same,BOR: LOR-P,patients with cGVHD; [3],1 participants
same,BOR: LOR-U,patients with cGVHD; [3],3 participants
same,BOR: PR,patients with cGVHD; [3],11 participants
same,"ORR, % (95% CI)","patients with cGVHD; Cohort 2 200 mg BID, listed as KD025",69 (41 to 89) %
same,DOR Median (95% CI),patients with cGVHD; Cohort 2 200 mg BID,11 (2-35%) weeks
same,"ORR, % (95% CI)",patients with cGVHD; Cohort 3 400 mg QD,57%
same,"ORR, refractory to previous LOT",patients with cGVHD; Cohort 3 400 mg QD,"9/15 (60, 32 to %"
same,"ORR, severe cGVHD",patients with cGVHD; Cohort 3 400 mg QD,"8/16 (50, 25 to %"
same,"ORR, ≤2 prior LOTs subgroup",patients with cGVHD; Cohort 3 400 mg QD,"8/12 (67, 35 to %"
same,"ORR, ≤4 organs involved",patients with cGVHD; Cohort 3 400 mg QD,"7/9 (78, 40 to %"
same,BOR: CR,patients with cGVHD; [4],0 participants
same,BOR: LOR-M,patients with cGVHD; [4],0 participants
same,BOR: LOR-P,patients with cGVHD; [4],1 participants
same,BOR: LOR-U,patients with cGVHD; [4],4 participants
same,BOR: PR,patients with cGVHD; [4],12 participants
same,"ORR, refractory to previous LOT",patients with cGVHD; Total,63%
same,"ORR, severe cGVHD",patients with cGVHD; Total,60%
same,"ORR, ≤2 prior LOTs subgroup",patients with cGVHD; Total,66%
same,"ORR, ≤4 organs involved",patients with cGVHD; Total,70%
same,"ORR, % (95% CI)","patients with cGVHD; Total N=54, listed as KD025",65 (51 to 77) %
same,"ORR, refractory to previous LOT","patients with cGVHD; Total, listed as KD025","22/35 (63, 45 to %"
same,"ORR, severe cGVHD","patients with cGVHD; Total, listed as KD025","25/42 (60, 43 to %"
same,"ORR, ≤2 prior LOTs subgroup","patients with cGVHD; Total, listed as KD025","23/35 (66, 48 to %"
same,"ORR, ≤4 organs involved","patients with cGVHD; Total, listed as KD025","19/27 (70, 50 to %"
same,ORR among patients with nonsevere cGVHD,patients with cGVHD; pooled cohorts,83%
same,"Area Under the Plasma Concentration Versus Time Curve From Time 0 to 6 Hours Post-dose (AUC0-6 hr), Geometric Mean (Geometric Coefficient of Variation)",[1]; [5],8350 hours*nanograms per milliliter
same,"Maximum Observed Plasma Concentration (Cmax), Geometric Mean (Geometric Coefficient of Variation)",[1]; [5],2500 (60.1%) nanograms per milliliter
same,"Area Under the Plasma Concentration Versus Time Curve From Time 0 to 6 Hours Post-dose (AUC0-6 hr), Geometric Mean (Geometric Coefficient of Variation)",[1]; [6],7090 (95.9%) hours*nanograms per milliliter
same,"Maximum Observed Plasma Concentration (Cmax), Geometric Mean (Geometric Coefficient of Variation)",[1]; [6],2020 (101%) nanograms per milliliter
same,"Area Under the Plasma Concentration Versus Time Curve From Time 0 to 6 Hours Post-dose (AUC0-6 hr), Geometric Mean (Geometric Coefficient of Variation)",[1]; [7],4960 hours*nanograms per milliliter
same,"Maximum Observed Plasma Concentration (Cmax), Geometric Mean (Geometric Coefficient of Variation)",[1]; [7],1400 (98.5%) nanograms per milliliter
same,"Area Under the Plasma Concentration Versus Time Curve From Time 0 to 6 Hours Post-dose (AUC0-6 hr), Geometric Mean (Geometric Coefficient of Variation)",[1]; [8],7190 (115%) hours*nanograms per milliliter
same,"Maximum Observed Plasma Concentration (Cmax), Geometric Mean (Geometric Coefficient of Variation)",[1]; [8],1890 (120%) nanograms per milliliter
same,"Area Under the Plasma Concentration Versus Time Curve From Time 0 to 6 Hours Post-dose (AUC0-6 hr), Geometric Mean (Geometric Coefficient of Variation)",[1]; [9],11500 hours*nanograms per milliliter
same,"Maximum Observed Plasma Concentration (Cmax), Geometric Mean (Geometric Coefficient of Variation)",[1]; [9],2960 (69.7%) nanograms per milliliter
same,"Area Under the Plasma Concentration Versus Time Curve From Time 0 to 6 Hours Post-dose (AUC0-6 hr), Geometric Mean (Geometric Coefficient of Variation)",[1]; [10],12000 hours*nanograms per milliliter
same,"Maximum Observed Plasma Concentration (Cmax), Geometric Mean (Geometric Coefficient of Variation)",[1]; [10],3270 (63.0%) nanograms per milliliter
same,Tmax,"[1]; 200 mg, Cohort 1: Belumosudil 200 mg QD, Cycle 1 Day 1",2.12 h
same,Tmax,"[1]; 200 mg, Cohort 1: Belumosudil 200 mg QD, Cycle 2 Day 1",2.53 h
same,Tmax,"[1]; 200 mg, Cohort 2: Belumosudil 200 mg BID, Cycle 1 Day 1",3.43 h
same,Tmax,"[1]; 200 mg, Cohort 2: Belumosudil 200 mg BID, Cycle 2 Day 1",2.47 h
same,Tmax,"[1]; 400 mg, Cohort 3: Belumosudil 400 mg QD, Cycle 1 Day 1",3.03 h
same,Tmax,"[1]; 400 mg, Cohort 3: Belumosudil 400 mg QD, Cycle 2 Day 1",2.66 h
